Reference: publication PMC11721293 (JCI Insight, 2025)
“And” between values parts separate entries of the source, which are not always exact repeats. Equal values may be shown once.

Tests used:
[1] = test system: HEK293A2T2 cells; conditions: initial screening
[2] = test system: Huh7 cells; conditions: initial screening
[3] = test system: VSV-SARS-CoV-2-S pseudovirus; assay: microbe, parasite or virus in culture; format: cell-based; conditions: for EC50: read-out: EC50
[4] = test system: SARS-CoV-2-nLUC; assay: microbe, parasite or virus in culture; format: cell-based; conditions: VeroE6; 15 μM GGTI; 24 h
[5] = test system: lysosomal compartment; assay: LysoTracker staining of VeroTA6 cells
Method: (A) VeroTA6 cells were seeded
post treatment, the cells were stained with lysotracker (Thermofisher, L7528) and visualized under
the microscope (left). The fluorescence intensity was captured and quantified for each treatment
B), the significance was calculated using one-way ANOVA with Dunnett’s test with multiple
comparison to the DMSO control, and the P values are depicted as ns for P>0.05, ** for P <0.01,

[6] = test system: SARS-CoV-2; format: cell-based

| Structure (SMILES) | CC50 [2] [µM] | Max % [3] | EC50 [3] | also measured |
| --- | --- | --- | --- | --- |
| CN1CCN([C@@H](c2ccccc2)c2ccc(Cl)cc2)CC1 [NCGC00343775] | 11.2 | 77.3% |  | CC50 [1]: > 30 µM |
| O=C(CCCN1CCN(c2ccc(F)cc2)CC1)NC1c2ccccc2CSc2ccccc21 (stereo not shown) [NCGC00183837] |  |  | > 30 µM |  |
| C[C@@H]1CN(C2CCC(C#N)(c3ccc(F)cc3)CC2)CC[C@]1(C(=O)O)c1ccccc1.Cl (stereo partly shown) [NCGC00016939] |  | 37.9% | > 30 µM |  |
| CN1CCCC(n2nc(Cc3ccc(Cl)cc3)c3ccccc3c2=O)CC1 (stereo not shown) [NCGC00177979] |  | 96.4% | 4.3 µM |  |
| CN1CCN(C(c2ccc(Cl)cc2)c2ccc(Cl)cc2)CC1 [NCGC00351413] | 12.9 | 67.9% | 2.6 µM |  |
| COc1ccc(CN(CCN(C)C)c2ccccn2)cc1 [NCGC00015822] |  | 49.2% | > 30 µM |  |
| Clc1ccc(C(c2ccc(Cl)cc2)N2CCOCC2)cc1 [NCGC00354586] | > 30 |  | > 100 µM |  |
| Clc1ccc(C(c2ccccc2)N2CCNCC2)cc1 (stereo not shown) [NCGC00345879] | 28 | 100.0% | 3 µM |  |
| CN(C)CCOC(c1ccc(Cl)cc1)c1ccccn1 (stereo not shown) [NCGC00166141] |  | 35.5% | 26.3 µM |  |
| NC1=NCC2c3ccccc3Cc3ccccc3N12 (stereo not shown) [NCGC00165791] |  |  | > 100 µM |  |
| CN(C)CCOC(c1ccccc1)c1ccccc1 [NCGC00015335] |  | 17.9% |  |  |
| CN(c1nccc(=O)[nH]1)C1CCN(c2nc3ccccc3n2Cc2ccc(F)cc2)CC1 [NCGC00181013] |  |  | > 30 µM |  |
| CN1CCC(CN2c3ccccc3Sc3ccccc32)C1 (stereo not shown) [NCGC00014482] | > 30 |  |  | CC50 [1]: > 30 µM |
| Cl.Cl.O=C(O)COCCN1CCN(C(c2ccccc2)c2ccc(Cl)cc2)CC1 (stereo not shown) [NCGC00016949] | > 30 | 29.7% | > 30 µM |  |
| CN1[C@@H]2CC[C@H]1CC(O[C@@H](c1ccccc1)c1ccc(Cl)cc1)C2 (stereo partly shown) [NCGC00015195] |  | 100.0% | 3.1 µM |  |
| CN1CCC[C@@H]1CCO[C@](C)(c1ccccc1)c1ccc(Cl)cc1 [NCGC00016710] | > 30 |  |  | CC50 [1]: > 30 µM |
| CC(CN1c2ccccc2Sc2cccnc21)N(C)C (stereo not shown) [NCGC00181101] |  |  | > 30 µM |  |
| CC(=O)N1CCN([C@@H](c2ccccc2)c2ccc(Cl)cc2)CC1 [NCGC00347049] | > 30 |  | > 100 µM |  |
| Clc1ccc(C(c2ccc(Cl)cc2)N2CCNCC2)cc1 [NCGC00354584] |  | 100.0% | 2 µM |  |
| Cc1nc[nH]c1CN1CCN(C(=O)N[C@@H](CC(C)C)C(=O)O)[C@@H](Cc2ccccc2)C1=O [GGTI2418] |  |  |  | effect on viral replication [4]: no effect on viral replication |
| CCN(CC)CCCC(C)Nc1ccnc2cc(Cl)ccc12 (stereo not shown) [CQ, Chloroquine] |  |  |  | LysoTracker fluorescence intensity ([5]; VeroTA6, 10 μM, 30 min): significant reduction in fluorescence intensity; Lysotracker ([5]; sheet S5A, individual measurements): 560.723 and 174.035 and 160.899 and 432.593 and 438.73 and 246.495 and 247.855 and 602.458 and 376.298 and 321.5 and 378.198 and 326.501 and 374.374 and 217.144 and 290.704 and 270.841 and 377.374 and 275.759 and 524.267 and 701.544 and 422.374 |
| c1ccc2c(c1)Sc1ccccc1N2C[C@H]1CN2CCC1CC2 [NCGC00014679] |  | 100.0% | 1.5 µM |  |
| Cc1cccc(CN2CCN([C@@H](c3ccccc3)c3ccc(Cl)cc3)CC2)c1 [NCGC00018296] |  | 54.8% | > 30 µM |  |
| Clc1ccc([C@H](c2ccccc2)N2CCN(C3CCCCC3)CC2)cc1 [NCGC00347039] | 14.1 | 70.8% | 4 µM |  |

| Structure (SMILES) | CC50 [2] [µM] | Max % [3] | EC50 [3] | also measured |
| --- | --- | --- | --- | --- |
| C[C@@H](CN1c2ccccc2Sc2ccccc21)N(C)C [NCGC00015817] |  | 87.0% | 4.5 µM |  |
| Clc1ccc(C(c2ccccc2)N2CCNCC2)cc1 (stereo not shown) [NCGC00345880] | 13.4 | 99.6% and 75.2% |  | CC50 [1]: > 30 µM |
| C(=C/c1ccccc1)/CN1CCN(C(c2ccccc2)c2ccccc2)CC1 [NCGC00015246] | 22 | 65.8% | > 30 µM |  |
| CN1CCC(=C2c3ccccc3CCc3cccnc32)CC1 [NCGC00182705] |  | 45.5% | > 30 µM |  |
| CN1CCC(N(c2ccccc2)c2ccc(OC(C)(C)C)cc2)CC1 [NCGC00346851] | > 30 | 68.3% | 14.9 µM |  |
| CN(C)C(=O)COC(=O)Cc1ccc(OC(=O)c2ccc(NC(=N)N)cc2)cc1 [camostat] |  |  |  | time-of-addition result [6]: only E64d, and not camostat, was effective in blocking the entry step |
| Cc1ccc(C(=CCN2CCCC2)c2cccc(C=CC(=O)O)n2)cc1 [NCGC00182053] |  |  | > 30 µM |  |
| CN(C)CCN(Cc1ccc(Cl)cc1)c1ccccn1 [NCGC00016672] |  | 77.6% | 11.1 µM |  |
| C[C@@H]1O[C@@]2(CS1)CN1CCC2CC1 [NCGC00485995] |  |  | 17.9 µM |  |
| CCOC(=O)N1CCC(=C2c3ccc(Cl)cc3CCc3cccnc32)CC1 [NCGC00015619] |  |  | > 30 µM |  |
| COc1ccc(CN(CCN(C)C)c2ncccn2)cc1 [NCGC00178145] |  |  | > 30 µM |  |
| CCc1ccc2c(c1)N(CC(C)CN(C)C)c1ccccc1S2.Cl (stereo not shown) [NCGC00014485] |  | 90.9% | 2.8 µM |  |
| CN(C)CCCN1c2ccccc2Sc2ccc(Cl)cc21 [NCGC00015273] |  |  | > 30 µM |  |
| CN1CCC(=C2c3ccccc3C=Cc3ccccc32)CC1 [NCGC00015252] |  | 52.7% | 12.3 µM |  |
| CC(C)c1ccc2oc3nc(N)c(C(=O)O)cc3c(=O)c2c1 [NCGC00167472] |  | 59.8% |  |  |
| Cc1cccn2c(=O)c(-c3nnn[n-]3)cnc12.[K+] [NCGC00167434] |  | 24.2% | > 30 µM |  |
| CN1CCN([C@H](c2ccccc2)c2ccc(Cl)cc2)CC1 [NCGC00343774] | 14.4 | 66.4% |  | CC50 [1]: > 30 µM |
| FC(F)(F)CN1CCN([C@@H](c2ccccc2)c2ccc(Cl)cc2)CC1 [NCGC00351281] | > 30 | 21.1% | > 100 µM |  |
| CN1CCC(=C2c3ccccc3CC(=O)c3sccc32)CC1 [NCGC00015580] |  |  | > 30 µM |  |
| c1ccc(CN(CC2=NCCN2)c2ccccc2)cc1 [NCGC00016613] |  |  | > 30 µM |  |
| CN1CCCN([C@@H](c2ccccc2)c2ccc(Cl)cc2)CC1 [NCGC00018271] | > 30 |  |  | CC50 [1]: > 30 µM |
| CN1CCN(C(c2ccccc2)c2ccc(Cl)cc2)CC1 (stereo not shown) [NCGC00179384] |  |  |  | CC50 [1]: > 30 µM |
| CN(C)CC[C@H](c1ccc(Cl)cc1)c1ccccn1 [NCGC00015227] |  |  | > 30 µM |  |
| CN(C)CCN(Cc1cccs1)c1ccccn1 [NCGC00015704] |  |  | > 30 µM |  |

| Structure (SMILES) | CC50 [2] [µM] | Max % [3] | EC50 [3] | also measured |
| --- | --- | --- | --- | --- |
| CN(C)CCCN1c2ccccc2Sc2ccccc21 [NCGC00015829] | 18.4 |  |  | CC50 [1]: > 30 µM |
| Clc1ccc(C(c2ccccc2)N2CCNCC2)cc1 (stereo not shown) [NCGC00245963] | > 30 | 99.5% |  | CC50 [1]: > 30 µM |
| CN1CCC(N(c2ccccc2)c2ccccc2)CC1 [NCGC00351675] | > 30 | 17.1% | > 100 µM |  |
| CC(C)(C)c1ccc(C(=O)CCCN2CCC(OC(c3ccccc3)c3ccccc3)CC2)cc1 [NCGC00164603] |  |  | > 30 µM |  |
| CC(C)(C(=O)O)c1ccc([C@@H](O)CCCN2CCC(C(O)(c3ccccc3)c3ccccc3)CC2)cc1 [NCGC00015453] |  |  | > 30 µM |  |
| CCN1CCN(C(c2ccc(Cl)cc2)c2ccc(Cl)cc2)CC1 [NCGC00351414] | > 30 | 83.6% |  | CC50 [1]: > 30 µM |
| COc1ccc(CCN2CCC(Nc3nc4ccccc4n3Cc3ccc(F)cc3)CC2)cc1 [NCGC00016913] |  | 79.3% | 8.4 µM |  |
| CN1CCN(C(c2ccccc2)c2ccccc2)CC1 [NCGC00016421] | > 30 | 58.1% | 25.2 µM |  |
| OC(CCCN1CCCCC1)(c1ccccc1)c1ccccc1 [NCGC00016624] |  | 57.9% | 12.8 µM |  |
| OC(c1ccccc1)(c1ccccc1)C1CN2CCC1CC2 (stereo not shown) [NCGC00160492] |  |  | > 30 µM |  |
| CN(C)CC[C@@H](c1ccc(Br)cc1)c1ccccn1 [NCGC00162100] |  | 59.8% | 23.3 µM |  |
| CN(C)CC/C=C1/c2ccccc2COc2ccc(CC(=O)O)cc21 [NCGC00263532] |  |  | > 30 µM |  |
| Cc1ccc(/C(=C/CN2CCCC2)c2ccccn2)cc1 [NCGC00024714] |  |  | > 30 µM |  |
| Clc1ccc(Cn2c(CN3CCCC3)nc3ccccc32)cc1 [NCGC00015243] |  |  | > 30 µM |  |
| CC(C)N1CCN([C@@H](c2ccccc2)c2ccc(Cl)cc2)CC1 [NCGC00347044] |  | 90.9% | 3.6 µM |  |
| CC(CN(C)C)CN1c2ccccc2S(=O)(=O)c2ccccc21 (stereo not shown) [NCGC00182075] |  |  | > 30 µM |  |
| CN1CCC(OC(c2ccccc2)c2ccccc2)CC1 [NCGC00016395] |  | 51.1% | 5.2 µM |  |
| CN1CCC(N(Cc2cccs2)c2ccccc2)CC1 [NCGC00183847] | > 30 | 64.0% and 54.6% | 11.4 µM and 18.4 µM | CC50 [1]: > 30 µM |
| COc1ccc(CN2CCN([C@@H](c3ccccc3)c3ccc(Cl)cc3)CC2)c(OC)c1 [NCGC00346845] | 24.6 | 64.2% | 22.5 µM |  |
| CCN1CCN(C2c3ccccc3-c3ccc(Br)cc32)CC1 (stereo not shown) [NCGC00351673] | > 30 | 77.7% | 28.1 µM |  |
| Cc1ccccc1[C@@H](OCCN(C)C)c1ccccc1 [NCGC00015771] |  | 25.1% | > 30 µM |  |
| OCCOCCN1CCN([C@@H](c2ccccc2)c2ccc(Cl)cc2)CC1 [NCGC00018255] | > 30 | 26.3% | > 100 µM |  |
| c1ccc2c(c1)Sc1ccccc1N2CC1CN2CCC1CC2 (stereo not shown) [NCGC00183046] | 26.3 |  |  | CC50 [1]: > 30 µM |
